Here are results for twelve compounds from US10131691B2, “Compositions and methods for specific regulation of pyruvate dehydrogenase kinase” (THE BOARD OF TRUSTEES OF THE LELAND STANFORD JUNIOR …, priority 2011, dated 2018).

No end group written: not given here.

For one assay, the system named is hearts subjected to I/R. As to the kind of experiment: Ex vivo cardiac protection from ischemia/reperfusion (Langendorff; infarct size, CPK release). The arrangement: species or system rat. The settings on record: for cardioprotection / biological activity in ex vivo I/R model (in words): CPK release and JNK phosphorylation as markers; for CPK (u/L) / protection from I/R injury: ex vivo I/R; for CPK (u/L): release into perfusate, 1 μM peptide; for protection from I/R injury: n=6. As to the method:
An ex vivo model of acute ischemic heart damage was used, which involves a 30 min equilibration period, followed by 30 min of global ischemia, which in turn is followed by 60 min of reperfusion. The hearts were perfused with 1 μM TAT or TAT-conjugated peptide. Normoxic control hearts were subjected to 90 min perfusion in the absence of ischemia. Coronary effluent was collected to determine creatine phosphokinase (CPK) release during the first 30 min of the reperfusion period. At the end of the reperfusion period, hearts were sliced into 1-mm-thick transverse sections and incubated in triphenyltetrazolium chloride solution (TTC, 1% in phosphate buffer, pH 7.4) at 37° C. for 15 min. Infarct size was expressed as a percentage of the risk zone (equivalent to total LV muscle mass) (methods described in Brandman et al., 2007, J. Biol. Chem., 282:4113-4123; Inagaki et al., 2003, Circulation, 108:869-875). […]
(§1) First, I/R-induced infarct size after treatment with ΨPDK or δV1-1 (Inagaki et al., 2003, Circulation, 108:869-875), was smaller than that in hearts treated with the control peptide or with ΨδRACK, the δPKC-specific activator or with δV1-5 (FIG. 6A). Second, similar data were obtained when determining the levels of released creatine phosphokinase (CPK), as a marker of myocardial infarction; CPK levels in the ΨPDK- or δV1-1-treated hearts were similar and were lower than those after treatment with control peptide, ΨδRACK or δV1-5 (FIG. 6B).
(§2) To begin determining the contribution of each of the amino acids on the effect of the peptide, Alanine scanning was used (Brunel et al., 2006, J. Virol., 80:1680-1687; Chen et al., J. Pep. Res., 2000, 56:147-156; Brems et al., 1992, Prot. Eng., 5:527-533) (substituting individual amino acid with an alanine). The resultant ΨPDK peptide analogs were then used in the same model of myocardial infarction, using CPK release and JNK phosphorylation as markers for cardiac injury. CPI release into the perfusates and pJNK in the hearts were determined after I/R in the presence of respective peptides and compared to the levels in hearts subjected to I/R in the presence of the control peptide. None of the peptides having a substitution had any significant biological activity (Table 1).

The test system of the next assay is JNK. As to the kind of experiment: JNK phosphorylation in hearts subjected to I/R (Western blot). The arrangement: species or system rat. The settings on record: ex vivo I/R hearts, 1 μM peptide. The procedure:
An ex vivo model of acute ischemic heart damage was used, which involves a 30 min equilibration period, followed by 30 min of global ischemia, which in turn is followed by 60 min of reperfusion. The hearts were perfused with 1 μM TAT or TAT-conjugated peptide. Normoxic control hearts were subjected to 90 min perfusion in the absence of ischemia. Coronary effluent was collected to determine creatine phosphokinase (CPK) release during the first 30 min of the reperfusion period. At the end of the reperfusion period, hearts were sliced into 1-mm-thick transverse sections and incubated in triphenyltetrazolium chloride solution (TTC, 1% in phosphate buffer, pH 7.4) at 37° C. for 15 min. Infarct size was expressed as a percentage of the risk zone (equivalent to total LV muscle mass) (methods described in Brandman et al., 2007, J. Biol. Chem., 282:4113-4123; Inagaki et al., 2003, Circulation, 108:869-875).
Rat hearts were homogenized in a buffer containing 210 mM mannitol, 70 mM sucrose, 5 mM MOPS and 1 mM EDTA followed by isolation of the mitochondria fraction (described in Churchill et al., 2008, J. Mol. Cell. Cardiol., 46:278-284) and identified by the presence of VDAC (MitoSciences, Eugene, Oreg., USA). The level of phosphorylated and unphosphorylated JNK1/2 was analyzed in the total fraction using respective specific antibodies (Cell Signaling, Danvers, Mass. and Santa Cruz Biotechnology, CA, USA).
as §1, §2
For orientation: A western blot detects proteins with antibodies after separation by electrophoresis.

The next assay deals with T1, δPKC (Mus musculus, UniProt P28867).
T1 construct: endogenous in cells; host or cells: primary fibroblasts from wild-type mice
As to the kind of experiment: MARCKS phosphorylation in wild-type fibroblasts (Western blot). Format: cell-based. Conditions: 20% serum, peptides conjugated to TAT47-57, relative to control peptide. The text has this: (§3) Fibroblasts were isolated from wild-type or δPKC knockout mice (provided by Dr. Robert Messing, Gallo Center, UCSF) as previously described (Disatnik et al., 2004, J. Cell Sci., 117:4469-4479) and maintained in 20% fetal bovine serum.
(§4) Phosphorylation of myristoylated alanine-rich C kinase substrate (MARCKS), a ubiquitous PKC substrate, was monitored by Western blot of total cell lysates, using anti-phosphorylated MARCKS (Cell Signaling, Danvers, Mass.). Anti-MARCKS and anti-δPKC antibodies were obtained from Santa Cruz Biotechnology (Santa Cruz Biotechnology, CA, USA).
(§5) The ΨPDK sequence is found both in PDK and in the PDK-cognate protein, δPKC. It was therefore predicted that ΨPDK mimics inhibitory intra-molecular interaction, and, similar to ΨδRACK, ΨPDK should compete with the inhibitory interaction of PDK and δPKC, and increase δPKC-mediated functions (FIG. 1A). Phosphorylation of myristoylated alanine-rich C-kinase substrate (MARCKS) was used as a marker of PKC activity (Disatnik et al., 2004, J. Cell. Sci., 117:4469-4479). […] To determine the selectivity of the peptides for δPKC, fibroblasts derived from δPKC knock-out mice were also used.

In assay [1] the test system is fibroblasts derived from δPKC knock-out mice. As to the kind of experiment: MARCKS phosphorylation in fibroblasts from δPKC knock-out mice. The class given is cell-based, mouse. The settings on record: fibroblasts lacking δPKC.
Source text: as §3, §4, §5

T1 sequence (P28867 whole entry): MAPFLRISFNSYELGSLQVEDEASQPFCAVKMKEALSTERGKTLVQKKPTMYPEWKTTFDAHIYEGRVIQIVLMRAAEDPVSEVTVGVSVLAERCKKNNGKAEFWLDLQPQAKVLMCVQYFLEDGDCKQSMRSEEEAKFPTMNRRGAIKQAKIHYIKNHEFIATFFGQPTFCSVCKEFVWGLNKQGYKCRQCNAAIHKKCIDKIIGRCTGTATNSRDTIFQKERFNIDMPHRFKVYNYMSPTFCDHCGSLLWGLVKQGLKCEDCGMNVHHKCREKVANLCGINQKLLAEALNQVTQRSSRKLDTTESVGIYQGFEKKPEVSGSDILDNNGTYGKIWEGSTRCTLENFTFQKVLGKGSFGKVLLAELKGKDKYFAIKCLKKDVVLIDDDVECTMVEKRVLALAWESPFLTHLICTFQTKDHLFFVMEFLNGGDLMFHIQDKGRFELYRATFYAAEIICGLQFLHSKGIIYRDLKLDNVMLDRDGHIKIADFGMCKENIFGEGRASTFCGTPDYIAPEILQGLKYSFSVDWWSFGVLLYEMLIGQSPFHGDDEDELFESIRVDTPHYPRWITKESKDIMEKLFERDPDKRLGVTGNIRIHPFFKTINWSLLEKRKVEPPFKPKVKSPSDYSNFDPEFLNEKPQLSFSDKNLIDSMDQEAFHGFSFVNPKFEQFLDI

Consider ALST(p)ER [p197], for which, in the assay on hearts subjected to I/R, the “cardioprotection / biological activity in ex vivo I/R model (in words)” value (“cardioprotection / biological activity” for short) is recorded as “None of the phosphorylated peptides (p197, 198, 199) affected cardioprotection” and the “CPK (u/L)” value came to 803 ± 131 u/L. In addition, the “p-JNK/total JNK” value in the assay on JNK worked out at 0.7 ± 0.10.
As to AASTER [p192], the “CPK (u/L)” value with hearts subjected to I/R was found to be 1272 ± 172 u/L. In the assay on JNK, the “p-JNK/total JNK” value was found to be 0.7 ± 0.10.
As to `CCCCCCCCCCCCCC(=O)O[C@@H]1[C@@H](C)[C@@]2(O)[C@@H](C=C(CO)C[C@]3(O)C(=O)C(C)=C[C@@H]23)[C@@H]2C(C)(C)[C@]12OC(C)=O` [PMA, Phorbol 12-myristate 13-acetate, reference compound], the MARCKS phosphorylation entry on δPKC is given as “caused increased MARCKS phosphorylation”.
Turning to ALS(p)T(p)ER [p199], in the assay on hearts subjected to I/R, the “cardioprotection / biological activity” value is listed as “None of the phosphorylated peptides (p197, 198, 199) affected cardioprotection” and the “CPK (u/L)” value is on record as 842 ± 258 u/L. Also, the “p-JNK/total JNK” value in the assay with JNK is listed as 0.6 ± 0.02.
Take ALSAER [p194]: the “CPK (u/L)” value in the assay with hearts subjected to I/R is listed as 886 ± 211 u/L. The “p-JNK/total JNK” value in the assay on JNK is 0.6 ± 0.10.
For ALSTAR [p195], in that order: 913 ± 199 u/L and 0.7 ± 0.10.
Regarding ALS(p)TER [p198], in the assay with hearts subjected to I/R, the “cardioprotection / biological activity” value is “None of the phosphorylated peptides (p197, 198, 199) affected cardioprotection” and the “CPK (u/L)” value was found to be 1169 ± 293 u/L. In the assay with JNK, the “p-JNK/total JNK” value stood at 0.9 ± 0.10.
In the case of ALATER [p193], in the assay on hearts subjected to I/R, the “CPK (u/L)” value worked out at 1155 ± 299 u/L. For the same compound, in the assay on JNK, the “p-JNK/total JNK” value came to 0.7 ± 0.03.
As to “ΨPDK-Cs-sC-TAT: SEQ ID NO. 2 linked to SEQ ID NO. 33 (TAT) via a disulfide bond (chain 1 ALSTER; chain 2 YGRKKRRQRRR; not fully specified; disulfide bond linkage)”, the “protection from I/R injury” value in the assay on hearts subjected to I/R was 45%.
Take ALSTEA [p196]: the “CPK (u/L)” value in the assay on hearts subjected to I/R worked out at 926 ± 265 u/L. The “p-JNK/total JNK” value with JNK was 0.9 ± 0.10.
“GKTLVQ (not fully specified (C-terminus); also: TAT47-57 conjugated via disulfide to C-terminal Cys) [δV1-5, reference compound]”: the MARCKS phosphorylation result (with δPKC; in assay [1]) was “increased MARCKS phosphorylation” in each case.
On to YGRKKRRQRRRGSGALSTER [TAT-GSG-ΨPDK], for which the “protection from I/R injury” value in the assay on hearts subjected to I/R is given as 73%.
